According to patent US20240327406A1, “POTASSIUM CHANNEL MODULATORS” (Autifony Therapeutics Limited, priority 2021, published 2024):
“And” between values parts separate entries of the source, which are not always exact repeats. Identical values can stand only once. Like-named read-outs stand apart in the source and are kept apart here.

Biological target: T1, human Kv3.1 channels (hKv3.1) (Homo sapiens, UniProt P48547)
T1 sequence (P48547 1-501 limits assumed): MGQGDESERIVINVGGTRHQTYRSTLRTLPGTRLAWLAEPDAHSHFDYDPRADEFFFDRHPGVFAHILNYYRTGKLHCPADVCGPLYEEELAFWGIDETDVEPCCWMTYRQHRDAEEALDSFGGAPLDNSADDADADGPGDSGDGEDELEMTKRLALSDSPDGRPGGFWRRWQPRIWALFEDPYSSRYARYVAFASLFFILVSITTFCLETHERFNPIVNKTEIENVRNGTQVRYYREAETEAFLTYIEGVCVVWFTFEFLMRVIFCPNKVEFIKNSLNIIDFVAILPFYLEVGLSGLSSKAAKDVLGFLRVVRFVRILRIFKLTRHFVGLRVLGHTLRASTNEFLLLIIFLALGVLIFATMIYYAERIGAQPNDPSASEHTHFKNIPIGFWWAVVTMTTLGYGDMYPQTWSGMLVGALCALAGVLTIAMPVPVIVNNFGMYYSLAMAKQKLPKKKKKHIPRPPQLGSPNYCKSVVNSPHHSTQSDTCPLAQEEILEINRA
Experiment: Measurement of Kv3 channel modulation: Kv3.1 assay (IonWorks Quattro whole-cell electrophysiology)
Format: cell-based
Details: for Kv3.1 max R %: normalised to maximum effect of reference compound (50 microM)
Description: The ability of the compounds of the invention to modulate the voltage-gated potassium channel subtypes Kv3.4/Kv3.3/Kv3.2/Kv3.1 may be determined using the following assay. Analogous methods may be used to investigate the ability of the compounds of the invention to modulate other channel subtypes.
Human embryonic kidney (HEK)-hKv3.1 cell line is generated by transfecting HEK-293 cells with an expression vector with human Kv3.1 (NM_004976.4). Cells are cultured with MEM supplemented with 10% Heat-Inactivated FBS, 2 mM L-glutamine, 1% Penicillin-Streptomycin, and 0.6 mg/ml of Geneticin (G418). HEK-hKv3.1b cells were amplified in T175 cm2 flask at 37° C. with 5% CO2, using MEM amplification medium, containing the G418 selection antibiotic (0.6 mg/ml). Cells were detached every 3-4 days, using DPBS to wash twice the flask, then TrypLE to dislodge the cells, and re-plated at a density of 2-4×10^6 cells/flask.
The day of the experiment, cells are removed from the incubator and the culture medium removed. Cells are washed with 5 ml of Dulbecco's PBS (DPBS) calcium and magnesium free and detached by the addition of 3 ml Versene (Invitrogen, Italy) followed by a brief incubation at 37° C. for 5 minutes. The flask is tapped to dislodge cells and 10 ml of DPBS containing calcium and magnesium is added to prepare a cell suspension. The cell suspension is then placed into a 15 ml centrifuge tube and centrifuged for 2 min at 1200 rpm. After centrifugation, the supernatant is removed and the cell pellet re-suspended in 4 ml of DPBS containing calcium and magnesium using a 5 ml pipette to break up the pellet. Cell suspension volume is then corrected to give a cell concentration for the assay of approximately 3 million cells per ml.
Experiments are conducted at r.t. using IonWorks Quattro™ planar array electrophysiology technology (Molecular Devices Corp.) with PatchPlate™ PPC. Stimulation protocols and data acquisition are carried out using a microcomputer (Dell Pentium 4). Planar electrode hole resistances (Rp) are determined by applying a 10 mV voltage step across each well. These measurements are performed before cell addition. After cell addition and seal formation, a seal test is performed by applying a voltage step from −80 mV to −70 mV for 160 ms. Following this, amphotericin-B solution is added to the intracellular face of the electrode to achieve intracellular access. Cells are held at −70 mV. Leak subtraction is conducted in all experiments by applying 50 ms hyperpolarizing (10 mV) prepulses to evoke leak currents followed by a 20 ms period at the holding potential before test pulses.
For hKv3.2 and hKv3.1, assays from the holding potential of −70 mV, a first test pulse at −15 mV was applied for 100 ms and after 100 ms at −70 mV a second pulse at +40 mV was applied for 50 ms. Cells were then maintained for 100 ms at −100 mV and another pulse from […] to +40 mV (duration 50 ms) was applied to clamp later the voltage at −40 mV during 200 ms
The intracellular solution contains the following (in mM): K-gluconate 100, KCl 54, MgCl2 3.2, HEPES 5, adjusted to pH 7.3 with KOH. Amphotericin-B solution is prepared as 50 mg/ml stock solution in DMSO and diluted to a final working concentration of 0.1 mg/ml in intracellular solution.
Compounds of use in the invention (or reference compounds such as N-cyclohexyl-N-[(7,8-dimethyl-2-oxo-1,2-dihydro-3-quinolinyl)methyl]-N′-phenylurea) are dissolved in dimethylsulfoxide (DMSO) at a stock concentration of 10 mM. […] Each dilution (1 μL) is transferred to another compound plate and external solution containing 0.05% pluronic acid (66 μL) is added. 3.5 μL from each plate containing a compound of the invention is added and incubated with the cells during the IonWorks Quattro™ experiment. The final assay dilution is 200 and the final compound concentrations are in the range 50 μM to 50 nM.

[1] = Table 2, Example compounds, rounded to one decimal place, some compounds with two data sets (n given in cell), read-out: Kv3.1 pEC50 (converted)
[2] = Table 3, Reference Examples and corresponding Examples, rounded to one decimal place, read-out: Kv3.1 pEC50 (converted)
[3] = Table 1, Reference Examples, current at -15 mV step, normalised to 50 microM reference compound, read-out: Kv3.1 pEC50 (converted)

`O=c1[nH]c2cccnc2n1-c1ccc(Oc2cccc(OC(F)(F)F)c2)nc1` [Example 7, 3-[6-[3-(trifluoromethoxy)phenoxy]-3-pyridyl]-1H-imidazo[4,5-b]pyridin-2-one] was tested, and the “Kv3.1 max R %” value (Table 2, Example compounds) was 89% and 96%, the EC50 [1] was 501 nM and 398 nM and the EC50 [2] was 398 nM. It also gave an EC50 (Table 5, Example compounds, read-out: Kv3.1 pEC50 (converted)) of 398 nM.
With `Cc1ccc(Oc2ncc(N3C(=O)NC(C)(C)C3=O)cn2)c2c1OCC21CC1` [RE4, reference compound] the “Kv3.1 max R %” value (Table 1, Reference Examples) was 158%.
For `CC1(C)COc2cccc(Oc3ncc(-n4c(=O)[nH]c5ccncc54)cn3)c21` [Example 23, 3-[2-[(3,3-dimethyl-2H-benzofuran-4-yl)oxy]pyrimidin-5-yl]-1H-imidazo[4,5-c]pyridin-2-one], the “Kv3.1 max R %” value (Table 2, Example compounds) was 101% and 107%, the EC50 [1] was 10000 nM and 7940 nM and the EC50 [2] was 7940 nM.
With `CC[C@@H]1CN(c2ccc(Oc3ccc(C)c4c3C3(CC3)CO4)nc2)C(=O)N1` [RE2, reference compound] the EC50 [3] was 20000 nM and the “Kv3.1 max R %” value (Table 1, Reference Examples) was 92%.
`O=c1[nH]c2c[nH]nc2n1-c1ccc(Oc2cccc3c2C2(CC2)CO3)nc1` [Example 34, 6-(6-spiro[2H-benzofuran-3,1′-cyclopropane]-4-yloxy-3-pyridyl)-2,4-dihydroimidazo[4,5-c]pyrazol-5-one] was tested, and the “Kv3.1 max R %” value (Table 2, Example compounds) was 128% and 131%, the “Kv3.1 pEC50” value (Table 2, Example compounds, rounded to one decimal place, some compounds with two data sets (n given in cell)) was 5.0 (n = 2) and the EC50 [1] was 10000 nM.
With `Cc1ccc(Oc2ccc(N3C(=O)CCNC3=O)cn2)c2c1OCC21CC1` [RE8, reference compound] the EC50 [3] was 25100 nM and the “Kv3.1 max R %” value (Table 1, Reference Examples) was 140%.
In the case of `N#Cc1ccc(Oc2ccc(-n3c(=O)[nH]c4cccnc43)cn2)cc1OC(F)(F)F` [Example 14, 4-[[5-(2-oxo-1H-imidazo[4,5-b]pyridin-3-yl)-2-pyridyl]oxy]-2-(trifluoromethoxy)benzonitrile], the “Kv3.1 max R %” value (Table 2, Example compounds) is reported as 124% and the EC50 [1] is reported as 1000 nM.
For `Cc1ccc(Oc2ncc(-n3c(=O)[nH]c4cccnc43)cn2)c2c1OCC21CC1` [Example 31, 3-[2-(7-methylspiro[2H-benzofuran-3,1′-cyclopropane]-4-yl)oxypyrimidin-5-yl]-1H-imidazo[4,5-b]pyridine-2-one], the “Kv3.1 max R %” value (Table 2, Example compounds) was 217% and the EC50 [1] was 200 nM.
In the case of `CC1(C)COc2cccc(Oc3ncc(-n4c(=O)[nH]c5cnccc54)cn3)c21` [RE9, reference compound], the EC50 [2] is reported as > 50100 nM.
`COc1cccc(Oc2ccc(-n3c(=O)[nH]c4cnc(C)nc43)cn2)c1` [Example 28, 9-[6-(3-methoxyphenoxy)-3-pyridyl]-2-methyl-7H-purin-8-one] was tested, and the “Kv3.1 max R %” value (Table 2, Example compounds) was 140% and the EC50 [1] was 3980 nM.
`Cn1cc2[nH]c(=O)n(-c3cnc(Oc4cccc5c4C4(CC4)CO5)nc3)c2n1` [Example 22, 2-methyl-6-(2-spiro[2H-benzofuran-3,1′-cyclopropane]-4-yloxypyrimidin-5-yl)-4H-imidazo[4,5-c]pyrazol-5-one] was tested, and the “Kv3.1 max R %” value (Table 2, Example compounds) was 166% and the EC50 [1] was 501 nM.
With `O=c1[nH]c2cccnc2n1-c1cnc(Oc2cccc(OC(F)(F)F)c2)cn1` [Example 10, 3-[5-[3-(trifluoromethoxy)phenoxy]pyrazin-2-yl]-1H-imidazo[4,5-b]pyridin-2-one] the “Kv3.1 max R %” value (Table 2, Example compounds) was 94% and the EC50 [1] was 2000 nM.
`Cc1ncc2[nH]c(=O)n(-c3ccc(Oc4cccc5c4C(C)(C)CO5)nc3)c2n1` [Example 30, 9-[6-[(3,3-dimethyl-2H-benzofuran-4-yl)oxy]-3-pyridyl]-2-methyl-7H-purin-8-one] was tested, and the “Kv3.1 max R %” value (Table 2, Example compounds) was 123% and the EC50 [1] was 126 nM.
Compound `O=c1[nH]c2cnccc2n1-c1ccc(Oc2cccc(OC(F)(F)F)c2)nc1` [RE10, reference compound] has an EC50 [2] of 2510 nM.
`O=c1[nH]c2ncccc2n1-c1ccc(Oc2cccc3c2C2(CC2)CO3)nc1` [Example 36, 1-(6-spiro[2H-benzofuran-3,1′-cyclopropane]-4-yloxy-3-pyridyl)-3H-imidazo[4,5-b]pyridin-2-one] was tested, and the EC50 (Kv3.1 pEC50, Table 2, Example compounds, rounded to one decimal place, some compounds with two data sets (n given in cell)) was 631 nM, the EC50 (Kv3.1 pEC50, Table 3, Reference Examples and corresponding Examples, rounded to one decimal place) was 631 nM and the “Kv3.1 max R %” value (Table 2, Example compounds) was 113%.
With `Cn1cc2[nH]c(=O)n(-c3ccc(Oc4cccc5c4C4(CC4)CO5)nc3)c2n1` [Example 18, 2-methyl-6-(6-spiro[2H-benzofuran-3,1′-cyclopropane]-4-yloxy-3-pyridyl)-4H-imidazo[4,5-c]pyrazol-5-one] the “Kv3.1 max R %” value (Table 2, Example compounds) was 148% and the EC50 [1] was 251 nM.
